Reference: patent US20080095868A1, “Use of fermented wheat-germ in the feeding and veterinary practice” (priority 2002, published 2008)

System: M. gallisepticum No 1226
Experiment: effect against Mycoplasma gallisepticum infection in chickens (Example 6)
Assay type: in vivo, Mycoplasma gallisepticum; Arbor Acress chickens
Description: The investigations were performed with Arbor Acress chickens of meat type free of M. synoviae infection. The freedom from Mycoplasma synoviae of the animals was verified with systematic serological screening examination in an agglutination test by the help of M. gallisepticum and M. synoviae antigens (Intervet International B.V.M.; Boxmeer, The Netherlands). Furthermore, the animals were tested in an ELISA-test based on monoclonal antibodies and with the use of MYGA test-kit (Diagnosztikum Kft; Budapest, Hungary) and MYSA kit (Svanova, Uppsala, Sweden) [Czifra, Gy. et al.: Avian Dis. 37, 680-688 (1993)]. The serological examinations gave negative results. Furthermore, from the same hatching from which the experimental animals derived, isolation of Mycoplasma was tried from the nasal cavity, trachea and air pocket of 20 1 day old chicks using medium B [Erno H., and Stipkovits, L.: Acta Vet. Scand. 14, 436-449 (1973)] and Frey's media [Frey, M. C. et al.: Am. J. Vet. Res. 29, 2164-2171 (1968)]. This cultivation closed with a negative result, too.
For the infection of the experimental animals M. gallisepticum N^o 1226 was employed which had been previously amplified in medium B for 24 hours. The germ content was 9.5×10^8 pfu/ml (pfu=plaque forming unit).
The experimental groups were treated and infected as follows:
Group 1. was located in a 200 litre box which can be fastened down hermetically, into which 10 ml sterile medium B was sprayed, then the animals were kept in this box for 20 minutes.
Group 3. was infected in identical manner as Group 2., then after location in a third room the animals were fed with a chick breeding nutriment containing VET-HBM in 3 g/kg concentration in the course of the experiment.
Group 4. was infected in identical manner as Group 2., then after location in a fourth room the animals were fed with a nutriment containing 200 mg/kg tiamutin (Biochemie GmbH, Kundl, Austria) in the course of the experiment.
To the judgment of the effectiveness of the treatment the following parameters were investigated: clinical symptoms, changes in body weight, feed conversion ratio; in addition to them pathological, histological and serological examinations as well as Mycoplasma re-isolation were performed. In the course of their evaluation the following result were obtained.
At the end of the experiment all the animals were examined by pathological dissection to air-pocket- and peritoneum inflammation characteristic of the M. gallisepticum infection.
The blood plasma of all the chickens was investigated on slide in a M. gallisepticum agglutination test. The severity of the reaction was scored, and the number of respondent animals and the sum of the scores were compared in a Chie square test. The Group 1. remained negative till the end of the experiment. […] (75 scores).
The re-isolation of the infectious Mycoplasma strain was performed as follows. Following of the infection after 1 hour 5-5 animals were killed. 1-1 cm long pieces of trachea were placed into 2 ml liquid medium B, and after 3 minutes of shaking germ counting were performed in the medium. At the end of the experiment re-isolation of the strain used for infection was attempted from the respiratory organs (trachea, lung, air-pocket) and other organs (brain, liver, spleen, kidney, heart) of all the chickens in that manner that samples were carried from every abovementioned organ to solid medium B by the help of a tampon. The agar slants were cultivated for 10 days then they were evaluated. A portion of the isolates was identified with an epifluorescent method using a specific immune serum.

C=C[C@]1(C)C[C@@H](OC(=O)CSCCN(CC)CC)[C@]2(C)[C@H](C)CC[C@]3(CCC(=O)[C@H]32)[C@@H](C)[C@@H]1O [tiamutin]
number of animals exhibiting serological response, M. gallisepticum agglutination test (30 animals per group, non-treated Group 2: 25, VET-HBM 3 g/kg, tiamutin 200 mg/kg): 8
Mycoplasma re-isolation, number of occasions (end of the experiment, Group 2: 64 instances, VET-HBM 3 g/kg, tiamutin 200 mg/kg): 3
clinical symptoms (infected chickens, Group 3 VET-HBM 3 g/kg, Group 4 tiamutin 200 mg/kg in nutriment): no any clinical symptoms
gain in body weight (infected chickens, VET-HBM 3 g/kg, tiamutin 200 mg/kg in nutriment): of same degree as in the control group
feed conversion ratio (infected chickens, VET-HBM 3 g/kg, tiamutin 200 mg/kg, versus control group): remained at the same level
sum of the scores of the serological reaction (non-treated Group 2: 75 scores, VET-HBM 3 g/kg, tiamutin 200 mg/kg): 11
pathological alterations (air-pocket- and peritoneum inflammation) (versus infected non-treated Group 2, VET-HBM 3 g/kg, tiamutin 200 mg/kg): developed significantly more scarcely
histological parameters (lymphohystiocytic bronchitis, lobular interstitial pneumoniae) (versus non-infected Group 1, VET-HBM 3 g/kg, tiamutin 200 mg/kg): remained on the same level as in the Group 1.
